{
  "source": "patent US20190015400A1",
  "about": "“Antifungal Compositions” (priority 2017, published 2019)",
  "key": {"[1]": {"tested_on": "C. glabrata ATCC 2001 (strain H)", "assay": "MIC and checkerboard assay, azoles + antihistamines", "type": "cell-based, Candida glabrata", "protocol": "(§1) Determination of minimum inhibitory concentration (MIC) values. MIC values were recorded for all antifungals and antihistamines in order to determine the concentration range of compounds to be used in the checkerboard assays.\n(§2) The MIC assays were done using the broth microdilution method as described in CLSI document M27-A3 with minor modifications. Yeast cultures were started by picking a colony from a PDA plate stored at 4° C. The colonies were grown in YEPD medium overnight at 35° C. with shaking at 200 rpm. In a 96-well plate compounds were diluted lengthwise along the plate in serial 2-fold dilutions in the RPMI 1640 medium. The yeast cultures were diluted in RPMI 1640 medium to an OD600 within the range of 0.12 and 0.15 (˜1×10^6 cells/mL). The fungal cells were further diluted by taking 25 μL of fungal cells and adding them to 10 mL of RPMI 1640 medium before adding 100 μL to plate (200 μL total volume). The plates were incubated at 35° C. for 48 h. Visual inspection of the wells for no growth was used to determine the MIC. All compounds were tested in duplicate (TABLES 6 and 7).\nCheckerboard assays were done as previously described to determine the fractional inhibitory concentration index (FICI). 2-fold dilutions of the azole drug were made in RPMI 1640 medium lengthwise along the plate. For the antihistamine, 2-fold serial dilutions were made in sterile tubes with RPMI 1640 medium, then aliquoted into the plate. […] The maximal amount was used in the checkerboard assays if complete inhibition was not observed in the MIC assays. Cultures were started by picking a colony from a plate and growing in YEPD medium overnight at 35° C. with shaking at 200 rpm. Cultures were diluted in RPMI 1640 medium to an OD600 between 0.12 and 0.15 (˜1×10^6 cells/mL). Cells were then further diluted by taking 25 μL of cell suspension and adding to 10 mL of RPMI 1640 medium. After the drugs were added to the plate with 100 μL of medium, 100 μL of fungal cells were added. Plates were incubated at 35° C. for 48 h and visual inspection was used to determine wells with no growth. All experiments were carried out in duplicate. The FICI was calculated based on the formula below. The combinational effect of the 2 tested compounds were considered synergistic (SYN) if FICI≤0.5, additive (ADD) if 0.5<FICI≤4, and antagonistic if FICI>4 (TABLES 6-9)."}, "J774A.1 cells": {"tested_on": "J774A.1 cells", "assay": "Mammalian cytotoxicity assay, azoles and compound 2", "excerpt": "(§3) David K. Orren (University of Kentucky, Lexington, Ky.) and Prof. David J. Feola (University of Kentucky, Lexington, Ky.), respectively."}, "[2]": {"tested_on": "C. glabrata ATCC 2001 (strain H) biofilm", "assay": "Biofilm disruption assay (XTT, SMIC90), POS and EBA", "type": "cell-based, Candida glabrata", "protocol": "Biofilm disruption assays. […] Biofilm assays were performed in 96-well plates using XTT [2,3-bis(2-methoxy-4-nitro-5-sulfophenyl)-2H-tetrazolium-5-carboxanilide] to measure the viability of the biofilm as previously described. An overnight culture of yeast was grown at 35° C. in YEPD medium with shaking at 200 rpm. The overnight culture was diluted in RPMI 1640 medium to an OD600 between 0.12 and 0.15 to make a working stock. Working stock was transferred to the 96-well plate in 100 μL aliquots, leaving one column empty for the sterile control. The plates were incubated at 37° C. for 24 h to allow formation of the biofilm. The medium and planktonic cells from the plate were then aspirated. PBS was then used to wash any remaining planktonic cells off of the biofilm wells. 100 μL of PBS was aliquoted into wells and then removed. The wells were washed 3 times with PBS. […] Plates were incubated at 37° C. for 24 h. Finally, the plates were washed 3 times with PBS before adding 100 μL of XTT dye. The XTT was prepared by dissolving XTT at 0.5 mg/mL concentration in sterile PBS. Before adding to a plate, 1 μL of 10 mM menadione in acetone was added to 10 mL of the 0.5 mg/mL solution of XTT. After addition of XTT (containing menadione), the plates were incubated at 3 h at 37° C. in the dark. 80 μL of liquid from each well was transferred to a new plate. Plates were then read with a SpectraMax M5 plate reader (Molecular Devices, Sunnyvale, Calif., USA) for absorbance at 450 nm. For these experiments, we determined the sessile MIC (SMIC90), which is defined as the drug concentration required to inhibit the metabolic activity of biofilm by 90% compared to the growth control. The SMIC90 values were used to calculate the FICI as described above (TABLE 10). The plates used to determine the SMIC90 are provided in FIGS. 91A-H. Each assay was performed in duplicate."}, "[3]": {"tested_on": "C. albicans ATCC 10231 (strain B)", "assay": "Time-kill assay, POS and EBA", "type": "cell-based, Candida albicans", "conditions": "drug alone (POS at concentration used in MICcombination; NYT, AMB at 1×MIC), inoculum 10^5", "protocol": "The protocol for time-kill assays followed methods previously described with minor modifications. Yeast cultures were grown overnight in YEPD medium at 35° C. with shaking at 200 rpm. A working stock of fungal cells was made by diluting cultures in 1640 medium to an OD600 of 0.125 (˜1×10^6 CFU/mL). From the working stock, 100 μL of cells was added to 4.9 mL of RPMI 1640 medium in sterile culture tubes, making the starting fungal cell concentration ˜1×10^5 CFU/mL. Drug was then added to the fungal cells. […] Treated fungal cultures were incubated in the culture tubes at 35° C. with 200 rpm shaking for 24 h. Samples were aliquoted from the different treatments at regular time points (0, 3, 6, 9, 12, and 24 h) and plated in duplicate. For each time point, cultures were vortexed, 100 μL of culture was aspirated, and 10-fold serial dilutions were made in sterile ddH2O. From the appropriate dilutions, 100 μL of fungal suspension was spread on PDA plates and incubated at 35° C. for 48 h before colony counts were determined. At 24 h, 50 μL of 1 mM resazurin in phosphate buffered saline (PBS) was added to the treatments and incubated at 35° C. with 200 rpm shaking for 2 h in the dark for visual inspection. […] Experiments were performed in duplicate."}, "HEK-293 cells": {"tested_on": "HEK-293 cells", "assay": "Mammalian cytotoxicity assay, azoles and compound 2", "type": "cell-based, human", "excerpt": "as §3"}, "[4]": {"tested_on": "13 Candida spp. strains (strains A-M)", "assay": "MIC and checkerboard assay, azoles + antihistamines, panel", "type": "cell-based", "protocol": "as §1, §2\nCheckerboard assays were done as previously described to determine the fractional inhibitory concentration index (FICI). 2-fold dilutions of the azole drug were made in RPMI 1640 medium lengthwise along the plate. […] The FICI was calculated based on the formula below. […]"}},
  "data": [
    {"smiles": "CC[C@@H]([C@H](C)O)n1ncn(-c2ccc(N3CCN(c4ccc(OC[C@@H]5CO[C@@](Cn6cncn6)(c6ccc(F)cc6F)C5)cc4)CC3)cc2)c1=O", "note": "[POS, posaconazole]", "values": [
      {"measurement": "MIC", "setting": "[1]; Nakaseomyces glabratus, ATCC2001, drug alone", "value": "> 32", "unit": "µg/mL"},
      {"measurement": "MIC in combination", "setting": "[1]; combination POS + EBA, MIC of the labelled drug", "value": 0.5, "unit": "µg/mL"},
      {"measurement": "fold decrease in MIC (combination vs alone)", "setting": "[1]; combination POS + EBA, decrease for the labelled drug", "value": 64, "unit": "fold"},
      {"measurement": "cell survival", "setting": "J774A.1 cells; drug alone at 8 μg/mL", "value": "80±9", "unit": "%"},
      {"measurement": "cell survival", "setting": "J774A.1 cells; drug alone at 16 μg/mL", "value": "~46±3", "unit": "%"},
      {"measurement": "SMIC90 combo", "setting": "[2]; combination POS + EBA, SMIC90 of the labelled drug", "value": 0.06, "unit": "µg/mL"},
      {"measurement": "SMIC90", "setting": "[2]; drug alone", "value": "> 32", "unit": "µg/mL"},
      {"measurement": "CFU/mL at 24 h", "setting": "[3]", "value": "10^8 CFU/mL"},
      {"measurement": "cell survival", "setting": "HEK-293 cells; POS 1 μg/mL + 32 μg/mL compound 2", "value": "80±8", "unit": "%"},
      {"measurement": "cell survival", "setting": "HEK-293 cells; POS 16 μg/mL + 32 μg/mL compound 2", "value": "40±6", "unit": "%"},
      {"measurement": "cell survival", "setting": "HEK-293 cells; drug alone at 16 μg/mL", "value": "around 45±12%"},
      {"measurement": "MIC", "setting": "[4]; Candida, drug alone against sensitive fungal strains", "value": "0.25 to 1", "unit": "µg/mL"},
      {"measurement": "MIC in synergistic combinations", "setting": "[4]; synergistic POS + EBA combinations, MIC of the labelled drug", "value": "0.008 to 0.5", "unit": "µg/mL"}
    ]}
  ]
}
